Read-outs that look alike come from different tables or passages of the source. Blank lines part the entries; values can stand above or below the compound they belong to.
What was measured:
[1] = test system: Caco-2 monolayer; test: Bidirectional efflux of kaempferol-glucuronides across the Caco-2 monolayer; type: in vitro ADME; details: 10 μM kaempferol loaded AP or BL, 2 h
[2] = type: in vivo, FVB mice; details: oral kaempferol 10 mg/kg; for fold higher plasma Cmax and AUC0-t in absence of Bcrp versus wild-type: Bcrp1^−/− vs wild-type FVB mice
[3] = In situ four-site rat intestinal perfusion of kaempferol
[4] = Pharmacokinetic study in rats after oral administration of kaempferol; type: in vivo, Sprague–Dawley (SD) rats; details: for AUC0-t / Cmax / MRT0-t / Tmax / AUC0−∞ / MRT last: plasma; for AUC0−∞: predicted AUC
[5] = rat, in vivo
[6] = test system: rat hepatic and segmental intestinal preparations; test: Kaempferol glucuronidation via rat hepatic and segmental intestinal microsomes; type: in vitro ADME, SD rats
[7] = ref [20]; cited from earlier work
[8] = test system: hepatic and intestinal S9 fractions; type: in vitro ADME, FVB mice; details: kaempferol 1.25 μM
[9] = test system: rat hepatic and segmental intestinal preparations; test: Kaempferol sulfation via rat hepatic and segmental intestinal S9 fraction; type: in vitro ADME, SD rats; details: kaempferol 0.125, 0.5 and 1.25 μM, S9 fraction 0.02 mg/mL
[10] = test system: hepatic and intestinal S9 fractions; type: in vitro ADME, FVB mice; details: kaempferol 0.125 μM
[11] = test system: Caco-2 monolayer; test: Transporter inhibition experiments in the Caco-2 monolayer; details: kaempferol 10 μM
[12] = perfusion with 5 μM or 20 μM kaempferol
[13] = male SD rats, oral kaempferol 10 mg/kg, n = 6
[14] = male SD rats, oral kaempferol 20 mg/kg, n = 6
[15] = male, Sprague-Dawley, rat, po, 10 mg/kg
[16] = male, Sprague-Dawley, rat, po, 20 mg/kg

- efflux toward the BL side compared with that toward the AP side [1]: approximately six times higher
- AUC0-t ([2]; Bcrp1^−/− FVB mice): 848 ± 123 µmol·min/L
- Cmax ([2]; Bcrp1^−/− FVB mice): 18 ± 6.4 µM
- MRT ([2]; Bcrp1^−/− FVB mice): 1.62 ± 0.362 h
- fold higher plasma Cmax and AUC0-t in absence of Bcrp versus wild-type [2]: ~ 2 fold
- AUC0-t ([2]; Mdr1a^−/− FVB mice): 143 ± 83 µmol·min/L
- Cmax ([2]; Mdr1a^−/− FVB mice): 4.62 ± 1.14 µM
- MRT ([2]; Mdr1a^−/− FVB mice): 1.88 ± 1.18 h
- AUC0-t ([2]; Mrp1^−/− FVB mice): 38.0 ± 29.1 µmol·min/L
- Cmax ([2]; Mrp1^−/− FVB mice): 1.75 ± 1.18 µM
- MRT ([2]; Mrp1^−/− FVB mice): 0.557 ± 0.332 h
- AUC0-t ([2]; Mrp2^−/− FVB mice): (1.28 ± 0.27) ×10^3 min•μmol/L
- Cmax ([2]; Mrp2^−/− FVB mice): 32.3 ± 9.7 µM
- MRT ([2]; Mrp2^−/− FVB mice): 1.51 ± 0.183 h
- AUC0-t ([2]; wild-type FVB mice): 365 ± 195 µmol·min/L
- Cmax ([2]; wild-type FVB mice): 8.92 ± 1.69 µM
- MRT ([2]; wild-type FVB mice): 1.72 ± 0.483 h
- AUC0-t [4, 13]: (1.74 ± 0.47) ×10^3 min•μmol/L
- Cmax [4, 13]: 24.6 ± 7 µM
- MRT0-t [4, 13]: 1.48 ± 0.233 h
- Tmax [4, 13]: 0.333 ± 0.148 h
- AUC0-t [4, 14]: (2.79 ± 0.33) ×10^3 min•μmol/L
- Cmax [4, 14]: 30.9 ± 5.5 µM
- MRT0-t [4, 14]: 1.9 ± 0.467 h
- Tmax [4, 14]: 0.4 ± 0.0917 h
- AUC0−∞ [4, 13]: (1.76 ± 0.46) ×10^3 min•μmol/L
- AUC0−∞ [4, 14]: (2.81 ± 0.33) ×10^3 min•μmol/L
- AUC of K-3-G, times higher than that of K-7-G ([4]; rats, 10 mg/kg kaempferol): five
- AUC of K-3-G, times higher than that of K-7-S ([4]; rats, 10 mg/kg kaempferol): four
- Cmax and AUC of K-3-G relative to K-7-G ([4]; rats, oral kaempferol): threefold to fivefold higher
- detection in plasma during perfusion [5]: detected in plasma
SMILES: O=C(O)[C@H]1O[C@@H](Oc2c(-c3ccc(O)cc3)oc3cc(O)cc(O)c3c2=O)[C@H](O)[C@@H](O)[C@@H]1O [K-3-G, kaempferol-3-glucuronide]
- regional excretion of metabolite in the perfusate [3, 12]: highest excretion in duodenum and jejunum and the lowest excretion in colon

- efflux toward the BL side compared with that toward the AP side [1]: not more than twice higher
- AUC0-t ([2]; Bcrp1^−/− FVB mice): 464 ± 234 µmol·min/L
- Cmax ([2]; Bcrp1^−/− FVB mice): 14.9 ± 3.6 µM
- MRT ([2]; Bcrp1^−/− FVB mice): 0.757 ± 0.372 h
- fold higher plasma Cmax and AUC0-t in absence of Bcrp versus wild-type [2]: > 4 fold
- AUC0-t ([2]; Mdr1a^−/− FVB mice): 63.1 ± 15.3 µmol·min/L
- Cmax ([2]; Mdr1a^−/− FVB mice): 1.12 ± 0.68 µM
- MRT ([2]; Mdr1a^−/− FVB mice): 4.07 ± 0.367 h
- AUC0-t ([2]; Mrp1^−/− FVB mice): 13.9 ± 12.0 µmol·min/L
- Cmax ([2]; Mrp1^−/− FVB mice): 0.839 ± 0.853 µM
- MRT ([2]; Mrp1^−/− FVB mice): 0.43 ± 0.277 h
- AUC0-t ([2]; Mrp2^−/− FVB mice): 392 ± 78 µmol·min/L
- Cmax ([2]; Mrp2^−/− FVB mice): 14.3 ± 4.8 µM
- MRT ([2]; Mrp2^−/− FVB mice): 1.52 ± 0.302 h
- AUC0-t ([2]; wild-type FVB mice): 114 ± 79 µmol·min/L
- Cmax ([2]; wild-type FVB mice): 2.91 ± 1.94 µM
- MRT ([2]; wild-type FVB mice): 1.36 ± 0.57 h
- glucuronide formation by liver microsomes, K-7-G versus K-3-G ([6]; rat liver microsomes): more K-7-G than K-3-G
- AUC0-t [4, 13]: 310 ± 95 µmol·min/L
- Cmax [4, 13]: 5.29 ± 2.97 µM
- MRT0-t [4, 13]: 2.1 ± 0.617 h
- Tmax [4, 13]: 0.292 ± 0.0833 h
- AUC0-t [4, 14]: 802 ± 231 µmol·min/L
- Cmax [4, 14]: 9.55 ± 3.37 µM
- MRT0-t [4, 14]: 2.17 ± 0.717 h
- Tmax [4, 14]: 0.267 ± 0.0917 h
- AUC0−∞ [4, 13]: 314 ± 96 µmol·min/L
- AUC0−∞ [4, 14]: 811 ± 311 µmol·min/L
SMILES: O=C(O)[C@H]1O[C@@H](Oc2cc(O)c3c(=O)c(O)c(-c4ccc(O)cc4)oc3c2)[C@H](O)[C@@H](O)[C@@H]1O [K-7-G, kaempferol-7-glucuronide]
- amount of K-7-G in the perfusate compared with K-3-G ([3]; 20 μM perfusion): slightly higher than that of K-3-G in duodenum and jejunum, but was significantly higher in ileum and colon
- regional excretion of metabolite in the perfusate [3, 12]: highest excretion in duodenum and jejunum and the lowest excretion in colon

- AUC0-t ([2]; Bcrp1^−/− FVB mice): 156 ± 55 µmol·min/L
- AUC0-t ([2]; Mdr1a^−/− FVB mice): 36.7 ± 37.0 µmol·min/L
- AUC0-t ([2]; Mrp1^−/− FVB mice): 6.72 ± 5.83 µmol·min/L
- AUC0-t ([2]; Mrp2^−/− FVB mice): 102 ± 10 µmol·min/L
- Cmax ([2]; male, FVB, mouse, plasma, po, 10 mg/kg, Cmax, wild-type FVB mice): 0.301 ± 0.185 µM
- MRT ([2]; male, FVB, mouse, plasma, po, 10 mg/kg, MRT, wild-type FVB mice): 2.75 h
- AUC0-t ([2]; wild-type FVB mice): 49.5 ± 38.6 µmol·min/L
- Cmax [4, 15]: 0.332 ± 0.085 µM
- MRT last [4, 15]: 17.5 h
- Tmax [4, 15]: 18.7 h
- Cmax [4, 16]: 0.703 ± 0.296 µM
- MRT last [4, 16]: 18.2 h
- Tmax [4, 16]: 15.2 h
- AUC0-t [4, 13]: 454 ± 90 µmol·min/L
- AUC0-t [4, 14]: (1.15 ± 0.22) ×10^3 min•μmol/L
- AUC0−∞ [4, 13]: 536 ± 164 µmol·min/L
- AUC0−∞ [4, 14]: (1.65 ± 0.56) ×10^3 min•μmol/L
- time after dose at which still detected in plasma ([4]; rats, oral kaempferol): 36 h
SMILES: O=c1c(O)c(-c2ccc(O)cc2)oc2cc(OS(=O)(=O)O)cc(O)c12 [K-7-S, kaempferol-7-sulfate]
- regional excretion of metabolite in the perfusate [3, 12]: highest excretion in colon and lowest excretion in ileum

- free kaempferol plasma concentration (below LLOQ) ([2]; at most periods, all strains of mice): < 3.9 nM
- increase of glucuronidation rate versus wild-type ([8]; liver S9, Bcrp1^−/− mice): 32%
- decrease of hepatic glucuronidation rate versus wild-type ([8]; liver S9, Mdr1a^−/− mice): ~30%
- decrease of hepatic glucuronidation rate versus wild-type ([8]; liver S9, Mrp1^−/− mice): ~ 26%
- decrease of hepatic glucuronidation rate versus wild-type ([8]; liver S9, Mrp2^−/− mice): ~ 11%
- sulfation reaction rates by tissue [9]: highest reaction rates in liver
- Cmax [4, 15]: 0.305 ± 0.106 µM
- MRT last [4, 15]: 0.437 h
- Tmax [4, 15]: 0.445 h
- Cmax [4, 16]: 0.647 ± 0.244 µM
- MRT last [4, 16]: 2.47 h
- Tmax [4, 16]: 0.3 h
- AUC0-t [4, 13]: 10.3 ± 3.8 µmol·min/L
- AUC0-t [4, 14]: 51.8 ± 17.2 µmol·min/L
- AUC0−∞ [4, 13]: 11.4 ± 3.7 µmol·min/L
- AUC0−∞ [4, 14]: 57.9 ± 13.6 µmol·min/L
- Cmax of kaempferol, times lower than that of K-3-G ([4]; rats, oral kaempferol): approximately 50 times
- Cmax of kaempferol, times lower than that of K-7-G ([4]; rats, oral kaempferol): ~16 times
- time to reach Cmax ([4]; rats, oral kaempferol): ≤ 30 min
- decrease of sulfation rate versus wild-type ([10]; intestine S9, Mdr1a^−/− mice): ~47%
- decrease of sulfation rate versus wild-type ([10]; intestine S9, Mrp1^−/− mice): ~ 25%
- decrease of sulfation rate versus wild-type ([10]; intestine S9, Mrp2^−/− mice): ~79%
- decrease of sulfation rate versus wild-type ([10]; liver S9, Mdr1a^−/− mice): ~39%
- decrease of sulfation rate versus wild-type ([10]; liver S9, Mrp1^−/− mice): ~ 11%
- decrease of sulfation rate versus wild-type ([10]; liver S9, Mrp2^−/− mice): ~59%
SMILES: O=c1c(O)c(-c2ccc(O)cc2)oc2cc(O)cc(O)c12 [Kaempferol, 3,4′,5,7-trihydroxyflavone]
- bioavailability [7]: lower than 2%
- glucuronidation rates by segment ([6]; kaempferol 1.25, 2.5 and 10 μM, microsomes 0.00318 mg/mL): high and low glucuronidation rates were observed in the small intestine and colon, respectively
- regional absorption of kaempferol [3, 12]: faster absorption in colon than in jejunum and ileum

SMILES: COc1ccc2c3c([nH]c2c1)[C@H](CC(C)C)N1C(=O)[C@H](CCC(=O)OC(C)(C)C)NC(=O)[C@@H]1C3 [Ko143]
- effect on bidirectional efflux rates and Fmet of the two glucuronides ([11]; Ko143 10 μM): significantly decreased
- effect on efflux rates and Fmet of K-7-S ([11]; Ko143 10 μM): No statistical differences

SMILES: CCCCC/C=C\C\C=C/C=C/C=C/[C@@H](SC[C@H](NC(=O)CC[C@H](N)C(=O)O)C(=O)NCC(=O)O)[C@@H](O)CCCC(=O)O [LTC4]
- effect on Fmet (BL to AP) of the three metabolites ([11]; LTC4 0.1 μM): decreased
- effect on intracellular amounts of K-3-G and K-7-G (AP to BL) ([11]; LTC4 0.1 μM): significantly increased
- effect on amounts of the three metabolites in the AP side ([11]; LTC4 0.1 μM, except K-7-S (AP to BL)): reduced

SMILES: CN(C)C(=O)CCSC(SCCC(=O)O)c1cccc(/C=C/c2ccc3ccc(Cl)cc3n2)c1 (stereo not drawn) [MK571]
- effect on intracellular amounts of the three metabolites ([11]; MK571 10 μM): did not significantly influence
- effect on the three metabolites transported into BL side ([11]; MK571 10 μM): dramatically reduced
- effect on efflux rates of the three metabolites toward the BL side ([11]; MK571 10 μM, except K-7-G (AP to BL)): significantly lowered

Reference: publication PMC7702721 (The AAPS journal, 2016)
